How the values were obtained:
[1] = system: streptozotocin-induced diabetic mice; settings: mouse, in vivo
Procedure: Male C57BL/Ks mdb mice were injected with streptozotocin (40 mg/kg) for 5 consecutive days. […] Treatment with antagonists was started 3 days after STZ and lasted for 10 days. Plasma glucose was determined by the glucose oxidase method, and 13 days urinary samples were assayed for proteins, nitrites and kallikreins.
Male C57BL/Ksmdb mice, 3 month old were provided by National Institute of Genetic, Buenos Aires. The animals were housed at a constant room temperature, with a 12 h light-dark cycle.
Blood (50–60 ul) was collected from the tail vein of non fasting animals in heparinized capillary tubes. Blood samples were taken one day before starting the STZ injection and at the day 13, just before sacrifice. Blood samples were centrifuged and the plasma immediately diluted into the appropriate buffer. Plasma glucose was determined by a glucose oxidase method (the kit was obtained from Wiener, Argentina). […] Urinary volume was determined gravimetrically and urinary samples were assayed for proteins^45, nitrites^40 and kallikrein^47.
Streptozotocin was purchased from the Sigma Chem Co., St. Louis, Mo. […] The paranitroanilide (pNA) released by enzymatic action on the substrate was measured calorimetrically to determine kallikrein activity
All data were expressed as mean=S.E. Analysis of Variance (ANOVA) was performed to evaluate differences among the groups. p<0.05 was considered as significant.

BK-B1 receptor = target: T1, BK-B1 receptor (Rattus norvegicus, UniProt P97583); experiment: Isometric contraction of portal vein segments from STZ-induced diabetic rats; type: cell-based; settings: P<0.001
T1 construct: Segments of the portal vein (a known preparation for BK studies) from these rats were mounted in organ baths; from tissue; host or cells: rat portal vein segments (STZ-diabetic and normal rats)
T1 sequence (P97583 1-337): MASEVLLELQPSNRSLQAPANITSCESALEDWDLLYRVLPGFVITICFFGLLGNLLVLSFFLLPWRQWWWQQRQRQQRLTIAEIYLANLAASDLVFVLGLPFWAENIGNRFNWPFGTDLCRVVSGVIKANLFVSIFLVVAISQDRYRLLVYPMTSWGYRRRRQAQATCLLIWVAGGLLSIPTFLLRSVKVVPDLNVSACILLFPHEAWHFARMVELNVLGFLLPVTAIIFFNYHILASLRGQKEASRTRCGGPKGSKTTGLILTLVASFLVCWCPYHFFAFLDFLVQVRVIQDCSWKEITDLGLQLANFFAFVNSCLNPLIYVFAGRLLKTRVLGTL
Excerpt: Capillary permeability is known to be selectively augmented in the streptozotocin (STZ) diabetic rat model^49. The vascular BK receptors in the STZ-induced diabetic rat was examined. Segments of the portal vein (a known preparation for BK studies) from these rats were mounted in organ baths for isometric contraction studies. The response to desArg^9BK, a specific BK–B1 receptor agonist, was enhanced by 118% in the diabetic tissue, compared to normal portal veins (0.48 vs 0.22g: P<0.001). […] HOE140, the BK–B2 receptor antagonist, had no effect on the diabetic portal vein abnormality. Evans blue (EB: 20 mg/kg), a marker of albumin extravasation, was injected to unanesthetized diabetic rats. […] Therefore, it was concluded that post-capillary hypercontractility to BK (via its B1 receptor) forces EB extravasation, and likely contributed to the diabetic vasculopathy.

[2] = target: T2, angiotensin-converting enzyme (ACE) from rabbit lungs (Oryctolagus cuniculus, UniProt P12822); settings: cited from earlier work
T2 sequence (P12822 34-1310): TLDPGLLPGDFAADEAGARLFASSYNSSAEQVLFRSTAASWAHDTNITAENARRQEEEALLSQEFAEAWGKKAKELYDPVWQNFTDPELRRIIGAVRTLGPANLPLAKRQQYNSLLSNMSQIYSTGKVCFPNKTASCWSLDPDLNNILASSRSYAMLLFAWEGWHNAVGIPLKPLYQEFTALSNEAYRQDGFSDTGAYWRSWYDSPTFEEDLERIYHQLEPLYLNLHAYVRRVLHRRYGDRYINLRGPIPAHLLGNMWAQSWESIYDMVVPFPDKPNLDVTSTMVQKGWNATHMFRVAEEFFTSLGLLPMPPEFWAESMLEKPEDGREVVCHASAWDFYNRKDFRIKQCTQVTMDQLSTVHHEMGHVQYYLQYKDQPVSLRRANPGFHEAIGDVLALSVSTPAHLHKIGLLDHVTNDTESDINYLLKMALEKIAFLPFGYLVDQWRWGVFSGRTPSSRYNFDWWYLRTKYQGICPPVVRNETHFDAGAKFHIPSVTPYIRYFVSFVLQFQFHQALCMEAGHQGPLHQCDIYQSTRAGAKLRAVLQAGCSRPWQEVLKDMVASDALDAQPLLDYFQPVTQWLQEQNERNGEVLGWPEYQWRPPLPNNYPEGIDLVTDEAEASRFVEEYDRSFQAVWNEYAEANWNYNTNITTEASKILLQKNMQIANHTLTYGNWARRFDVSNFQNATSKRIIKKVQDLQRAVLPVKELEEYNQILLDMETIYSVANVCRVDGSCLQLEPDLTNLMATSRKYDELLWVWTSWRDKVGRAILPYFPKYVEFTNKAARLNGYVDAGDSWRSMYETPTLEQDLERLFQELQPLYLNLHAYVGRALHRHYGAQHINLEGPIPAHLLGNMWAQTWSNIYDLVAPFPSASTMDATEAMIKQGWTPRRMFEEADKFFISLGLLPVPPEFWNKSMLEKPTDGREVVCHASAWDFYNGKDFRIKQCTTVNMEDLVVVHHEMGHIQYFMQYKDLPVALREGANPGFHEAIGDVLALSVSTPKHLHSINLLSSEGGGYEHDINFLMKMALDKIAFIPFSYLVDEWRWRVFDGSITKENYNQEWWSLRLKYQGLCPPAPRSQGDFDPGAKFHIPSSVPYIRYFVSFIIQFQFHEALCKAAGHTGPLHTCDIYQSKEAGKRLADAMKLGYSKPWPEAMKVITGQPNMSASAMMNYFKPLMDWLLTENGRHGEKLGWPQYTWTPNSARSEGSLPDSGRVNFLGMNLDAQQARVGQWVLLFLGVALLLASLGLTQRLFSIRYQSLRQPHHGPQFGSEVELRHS

Compound: NC(N)=NCCC[C@@H](N)C(=O)N[C@@H](CCCN=C(N)N)C(=O)N1CCC[C@H]1C(=O)N1C[C@H](O)C[C@H]1C(=O)NCC(=O)N[C@@H](Cc1cccs1)C(=O)N[C@@H](CO)C(=O)N1Cc2ccccc2C[C@@H]1C(=O)N1[C@H](C(=O)N[C@@H](CCCN=C(N)N)C(=O)O)C[C@@H]2CCCC[C@@H]21 [HOE140, D-Arg(Hyp^3, Thi^5, D-Tic^7, Oic^8)BK]
- Body weight [1]: No changes of body weight

Compound: N=C(N)NCCC[C@H](N)C(=O)N1CCC[C@H]1C(=O)N1CCC[C@H]1C(=O)NCC(=O)N[C@@H](Cc1ccccc1)C(=O)N[C@@H](CO)C(=O)N1CCC[C@H]1C(=O)N[C@@H](Cc1ccccc1)C(=O)O [desArg^9BK, Arg-Pro-Pro-G1y-Phe-Ser-Pro-Phe]
- Enhancement of response in diabetic tissue compared to normal portal veins (BK-B1 receptor): 118%
- Metabolism of naturally-occurring kinins by ACE [2]: fully metabolised
